ChEMBL document CHEMBL5321258, “Anticancer evaluation of benzofuran derivatives linked to dipiperazine moiety” (Bioorg Med Chem Lett, 2023)

Tests used:
HeLa [1] = assay: Anticancer activity against human HeLa cells assessed as inhibition of cell proliferation by SRB assay; assay type: functional, cell-based
A549 [2] = assay: Anticancer activity against human A549 cells assessed as inhibition of cell proliferation by SRB assay; assay type: functional, cell-based
A549 [3] = assay: Anticancer activity against human A549 cells assessed as inhibition rate at 10 uM by SRB assay relative to control; assay type: functional
HeLa [4] = assay: Anticancer activity against human Hela cells assessed as inhibition rate at 30 uM by SRB assay relative to control; assay type: functional
A549 [5] = assay: Anticancer activity against human A549 cells assessed as inhibition rate at 30 uM by SRB assay relative to control; assay type: functional
HeLa [6] = assay: Anticancer activity against human Hela cells assessed as inhibition rate at 10 uM by SRB assay relative to control; assay type: functional
A549 [7] = assay: Induction of apoptosis in human A549 cells assessed as necrotic cells at 2.5 uM incubated for 24 hrs AnnexinV/ propidium iodide staining based flow cytometry (Rvb= 0.16 %); assay type: functional
A549 [8] = assay: Induction of apoptosis in human A549 cells assessed as viable cells at 5 uM incubated for 24 hrs AnnexinV/ propidium iodide staining based flow cytometry (Rvb= 98.5 %); assay type: functional; settings: read-out: Activity
A549 [9] = assay: Induction of apoptosis in human A549 cells assessed as viable cells at 2.5 uM incubated for 24 hrs AnnexinV/ propidium iodide staining based flow cytometry (Rvb= 98.5 %); assay type: functional; settings: read-out: Activity
A549 [10] = assay: Induction of apoptosis in human A549 cells assessed as late apoptotic cells at 5 uM incubated for 24 hrs AnnexinV/ propidium iodide staining based flow cytometry (Rvb= 0.54 %); assay type: functional
A549 [11] = assay: Induction of apoptosis in human A549 cells assessed as late apoptotic cells at 2.5 uM incubated for 24 hrs AnnexinV/ propidium iodide staining based flow cytometry (Rvb= 0.54 %); assay type: functional
A549 [12] = assay: Induction of apoptosis in human A549 cells assessed as early apoptotic cells at 2.5 uM incubated for 24 hrs AnnexinV/ propidium iodide staining based flow cytometry (Rvb= 0.79 %); assay type: functional
A549 [13] = assay: Induction of apoptosis in human A549 cells assessed as necrotic cells at 5 uM incubated for 24 hrs AnnexinV/ propidium iodide staining based flow cytometry (Rvb= 0.16 %); assay type: functional
A549 [14] = assay: Induction of apoptosis in human A549 cells assessed as early apoptotic cells at 5 uM incubated for 24 hrs AnnexinV/ propidium iodide staining based flow cytometry (Rvb= 0.79 %); assay type: functional

IC50 (HeLa [1]) [µM] | IC50 (A549 [2]) [µM] | SMILES | inhibition at 10 µM (A549 [3]) [%] | inhibition at 30 µM (HeLa [4]) [%] | inhibition at 30 µM (A549 [5]) [%] | inhibition at 10 µM (HeLa [6]) [%] | Activity (A549 [7]) [%] | viability at 5 µM (A549 [8]) [%] | viability at 2.5 µM (A549 [9]) [%] | Activity (A549 [10]) [%] | Activity (A549 [11]) [%] | Activity (A549 [12]) [%] | Activity (A549 [13]) [%] | Activity (A549 [14]) [%]
14.5 | > 30 | CCc1ccc(C(=O)N2CCN(CC(=O)N3CCN(CCOc4ccc(C(=O)c5cc6ccc(N(CC)CC)cc6o5)cc4)CC3)CC2)cc1 | 24.7 | 81.1 | 76.7 | 42.7 |  |  |  |  |  |  |  | 
 |  | CCN(CC)c1ccc2cc(C(=O)c3ccc(OCCN4CCN(C(=O)CN5CCN(C(=O)c6cc(F)c(F)c(F)c6F)CC5)CC4)cc3)oc2c1 | 20 | 86.6 | 61.1 | 28 |  |  |  |  |  |  |  | 
 |  | CCN(CC)c1ccc2cc(C(=O)c3ccc(OCCN4CCN(C(=O)CN5CCN(C(=O)c6ccccc6C(F)(F)F)CC5)CC4)cc3)oc2c1 | 27.3 | 44.1 | 34.5 | 25.5 |  |  |  |  |  |  |  | 
 |  | CCN(CC)c1ccc2cc(C(O)c3ccc(OCCN4CCN(C(=O)CN5CCN(C(=O)c6ccc(Br)cc6C(F)(F)F)CC5)CC4)cc3)oc2c1 (stereo not drawn) | 69.7 | 9.7 | 72.3 | -1.6 |  |  |  |  |  |  |  | 
 |  | CCN(CC)c1ccc2cc(C(O)c3ccc(OCCN4CCN(C(=O)CN5CCN(C(=O)c6ccccc6C(F)(F)F)CC5)CC4)cc3)oc2c1 (stereo not drawn) | 43.6 | 49.8 | 57.8 | 30.6 |  |  |  |  |  |  |  | 
 |  | CCN(CC)c1ccc2cc(C(=O)c3ccc(OCCN4CCN(C(=O)CN5CCN(C(=O)c6cc(Cl)cc(Cl)c6)CC5)CC4)cc3)oc2c1 | 39.8 | 41.7 | 49.3 | 20.1 |  |  |  |  |  |  |  | 
6.85 | 9.18 | C=CC(=O)N1CCN(CC(=O)N2CCN(CCOc3ccc(C(O)c4cc5ccc(N(CC)CC)cc5o4)cc3)CC2)CC1 (stereo not drawn) | 51.9 | 90.7 | 64 | 53.8 |  |  |  |  |  |  |  | 
> 30 | 0.12 | CCN(CC)c1ccc2cc(C(O)c3ccc(OCCN4CCN(C(=O)CN5CCN(C(=O)c6ccc(C(F)(F)F)cc6)CC5)CC4)cc3)oc2c1 (stereo not drawn) | 92.5 | 19.8 | 95.2 | 11.3 | 0.25 | 94 | 97 | 3.49 | 1.73 | 1.07 | 0.55 | 1.95
28.3 | 8.96 | CCN(CC)c1ccc2cc(C(O)c3ccc(OCCN4CCN(C(=O)CN5CCN(C(=O)c6cccc(C(F)(F)F)c6)CC5)CC4)cc3)oc2c1 (stereo not drawn) | 65.1 | 69.5 | 81.2 | 43.9 |  |  |  |  |  |  |  | 
4.72 | 8.63 | CCN(CC)c1ccc2cc(C(O)c3ccc(OCCN4CCN(C(=O)CN5CCN(C(=O)c6ccccc6F)CC5)CC4)cc3)oc2c1 (stereo not drawn) | 55.3 | 92 | 75.6 | 79 |  |  |  |  |  |  |  | 
 |  | C=C(C)C(=O)N1CCN(CC(=O)N2CCN(CCOc3ccc(C(O)c4cc5ccc(N(CC)CC)cc5o4)cc3)CC2)CC1 (stereo not drawn) | 22.2 | 30.5 | 55.5 | 5.4 |  |  |  |  |  |  |  | 
 |  | CCc1ccc(C(=O)N2CCN(CC(=O)N3CCN(CCOc4ccc(C(O)c5cc6ccc(N(CC)CC)cc6o5)cc4)CC3)CC2)cc1 (stereo not drawn) | 47.9 | 75.2 | 73.2 | 36.1 |  |  |  |  |  |  |  | 
 |  | CCN(CC)c1ccc2cc(C(O)c3ccc(OCCN4CCN(C(=O)CN5CCN(C(=O)c6ccc([N+](=O)[O-])cc6)CC5)CC4)cc3)oc2c1 (stereo not drawn) | 19.2 | 28.3 | 33 | 17.2 |  |  |  |  |  |  |  | 
 |  | CCN(CC)c1ccc2cc(C(=O)c3ccc(OCCN4CCN(C(=O)CN5CCN(C(=O)c6ccccc6F)CC5)CC4)cc3)oc2c1 | 66.4 | 56.9 | 76.9 | 31.4 |  |  |  |  |  |  |  | 
 |  | C=CC(=O)N1CCN(CC(=O)N2CCN(CCOc3ccc(C(=O)c4cc5ccc(N(CC)CC)cc5o4)cc3)CC2)CC1 | 2.3 | 32.1 | 9.3 | 18.6 |  |  |  |  |  |  |  | 
 |  | CCN(CC)c1ccc2cc(C(=O)c3ccc(OCCN4CCN(C(=O)CN5CCN(C(=O)c6ccc(F)cc6)CC5)CC4)cc3)oc2c1 | 29 | 57 | 45.3 | 26 |  |  |  |  |  |  |  | 
7.09 | 9.17 | CCN(CC)c1ccc2cc(C(=O)c3ccc(OCCN4CCN(C(=O)CN5CCN(C(=O)c6ccc(C)cc6)CC5)CC4)cc3)oc2c1 | 54.3 | 90.1 | 62.4 | 61.4 |  |  |  |  |  |  |  | 
 |  | CCN(CC)c1ccc2cc(C(O)c3ccc(OCCN4CCN(C(=O)CN5CCN(C(=O)c6ccc(OC)cc6)CC5)CC4)cc3)oc2c1 (stereo not drawn) | 55.2 | 66.7 | 63.5 | 42 |  |  |  |  |  |  |  | 
> 30 | 0.43 | CCN(CC)c1ccc2cc(C(O)c3ccc(OCCN4CCN(C(=O)CN5CCN(C(=O)c6ccc(F)cc6)CC5)CC4)cc3)oc2c1 (stereo not drawn) | 80.1 | 40.6 | 83.9 | 20.4 | 4.26 | 23.4 | 71 | 39 | 18.9 | 5.88 | 9.18 | 28.5
11.2 | 21.4 | CCN(CC)c1ccc2cc(C(=O)c3ccc(OCCN4CCN(C(=O)CN5CCN(C(=O)c6ccc7ccccc7c6)CC5)CC4)cc3)oc2c1 | 30.9 | 85.3 | 78.8 | 48.7 |  |  |  |  |  |  |  | 
27.2 | 8.06 | CCN(CC)c1ccc2cc(C(=O)c3ccc(OCCN4CCN(C(=O)CN5CCN(C(=O)c6ccc(OC)cc6)CC5)CC4)cc3)oc2c1 | 65.3 | 64.1 | 85.8 | 27.5 |  |  |  |  |  |  |  | 
 |  | C=C(C)C(=O)N1CCN(CC(=O)N2CCN(CCOc3ccc(C(=O)c4cc5ccc(N(CC)CC)cc5o4)cc3)CC2)CC1 | 36.1 | 3.2 | 69.8 | -2.1 |  |  |  |  |  |  |  | 
 |  | CCN(CC)c1ccc2cc(C(=O)c3ccc(OCCN4CCN(C(=O)CN5CCN(C(=O)c6ccc(Br)cc6C(F)(F)F)CC5)CC4)cc3)oc2c1 | 41.4 | 62.2 | 53.8 | 33.2 |  |  |  |  |  |  |  | 
> 30 | 3.05 | CCN(CC)c1ccc2cc(C(O)c3ccc(OCCN4CCN(C(=O)CN5CCN(C(=O)c6ccc7ccccc7c6)CC5)CC4)cc3)oc2c1 (stereo not drawn) | 77.9 | 24 | 89.2 | 12.1 |  |  |  |  |  |  |  | 
> 30 | 1.54 | CCN(CC)c1ccc2cc(C(O)c3ccc(OCCN4CCN(C(=O)CN5CCN(C(=O)c6ccc(C)cc6)CC5)CC4)cc3)oc2c1 (stereo not drawn) | 77.9 | 35.9 | 97.2 | 15.9 |  |  |  |  |  |  |  | 
 |  | CCN(CC)c1ccc2cc(C(=O)c3ccc(OCCN4CCN(C(=O)CN5CCN(C(=O)c6cccc(C(F)(F)F)c6)CC5)CC4)cc3)oc2c1 | 49.3 | 70.1 | 57.8 | 27.4 |  |  |  |  |  |  |  | 
 |  | CCN(CC)c1ccc2cc(C(=O)c3ccc(OCCN4CCN(C(=O)CN5CCN(C(=O)c6ccc([N+](=O)[O-])cc6)CC5)CC4)cc3)oc2c1 | 16.5 | 24 | 22.9 | 17.2 |  |  |  |  |  |  |  | 
14.8 | 24.9 | CCN(CC)c1ccc2cc(C(=O)c3ccc(OCCN4CCN(C(=O)CN5CCN(C(=O)c6ccc(Cl)cc6)CC5)CC4)cc3)oc2c1 | 22.9 | 89 | 78.1 | 47.5 |  |  |  |  |  |  |  | 
8.64 | 7.02 | CCN(CC)c1ccc2cc(C(=O)c3ccc(OCCN4CCN(C(=O)CN5CCN(C(=O)c6ccc(C(F)(F)F)cc6)CC5)CC4)cc3)oc2c1 | 54.8 | 94.9 | 77.9 | 50.7 |  |  |  |  |  |  |  | 
